Results reported in article PMC7900799, “Synthesis, antibiotic structure–activity relationships, and cellulose dissolution studies of new room-temperature ionic liquids derived from lignin” (Biotechnology for Biofuels, 2021).
Like-named read-outs stand apart in the source and are kept apart here. Each block holds one compound with its values, some of them ahead of it.

Key:
[1] = tested on: E. coli strain 1A1; assay: Broth dilution assay (antibiotic assay), growth at 600 nm after 24 h; format: cell-based
Protocol: (§1) To determine if the antibacterial activity of 5 was due to pH effects, an additional broth dilution assay was performed using sodium hydroxide as a positive control.
E. coli strain 1A1 [43] was obtained from the microbial strain repository at the Joint Bioenergy Institute at Lawrence Berkeley National Laboratory. A 10 mL culture in Luria Broth (LB) media was grown for 18 h at 37 °C with shaking at 200 rpm. The culture was then diluted into LB media to an absorbance of 0.05 at 600 nm, and added into the wells of a 96-well plate (first row = 190 µL, all other wells = 100 µL/well). Approximately 700 mg of IL was dissolved into 1 mL of methanol, and 10 µL of each IL solution was added to first row wells of the plate. A twofold serial dilution was performed down the plate by mixing and transferring 100 µL using a multi-channel pipette. To maintain isochoric conditions, 100 µL was discarded from bottommost wells. The plate was then incubated at 37 °C with shaking at 150 rpm. After 24 h incubation, E. coli growth was quantified at 600 nm using an Epoch Microplate Spectrophotometer (Gen5 software). […] All experiments were repeated 3–7 times and error bars in Fig. 5 represent standard deviation. Statistical F-test was performed to determine the appropriate t-test (i.e., equal or unequal variance) to analyze significant difference between IC50 data.

[2] = pH of LB media at the IC50 concentration; format: physicochemical; conditions: at IC50 against E. coli
Protocol: as §1

[3] = tested on: Daphnia magna; assay: 48-h acute toxicity study on D. magna; format: in vivo; conditions: for IC50: Daphnia magna, 48 h, read-out: IC50 against D. magna
Protocol: Procedures for cultivating and performing acute toxicity assays with D. magna generally followed the US EPA protocol. Daphnia magna was cultured from stocks supplied by Aquatic Bio Systems Inc. (Fort Collins, CO). The organisms were cultured in 900-mL jars filled with moderately hard water from the recipe: 0.473 g CaSO4, 0.959 g NaHCO3, 1.223 g MgSO4·7H2O, and 0.039 g KCl per 10 L of deionized water. 2 mL of algae (Selenastrum capriconutum) containing 3.0 × 10^7 cells/mL were fed to D. magna on both Tuesdays and Thursdays with water changes as well as feedings on Saturdays. All glass jars were placed in a Thermo Scientific Precision incubator (Fischer Scientific, Hampton, NH) at a holding temperature of 20 °C and on a 12 h:12 h light:dark cycle. This procedure was conducted approximately a month prior to the beginning of the project. To prepare D. magna for use in acute experiments, three hundred adult daphnids were separated into five 1-L beakers with 60 daphnids each. These daphnids were used a week later in the experiment. All daphnid cultures followed the same protocol for feeding and water changes as mentioned previously.
A 48-h acute toxicity study was carried out to examine the toxic effects of 11 and 12 on D. magna, Glass jars were filled with moderately hard water and spiked with the appropriate concentration of IL from stock solution to a total volume of 50 mL. For each IL, 5 different concentrations were studied. Control jars were set up with only 50 mL of moderately hard water. Four replicates were used for each concentration and each replicate had four daphnids. The daphnids were placed into glass jars for each concentration of ILs. All glass jars were placed in a Thermo Scientific Precision incubator (Fischer Scientific, Hampton, NH) at a holding temperature of 20 °C and on a 12 h:12 h light:dark cycle. Mortality in each jar was recorded every 24 h.

[4] = E. coli strain 1A1, LB media, 24 h, 37 °C, read-out: IC50 (concentration of IL required to decrease bacterial growth by 50%)
[5] = Escherichia coli, 1A1, 24 h, E. coli strain 1A1, LB media, 24 h, 37 °C, read-out: IC50 (concentration of IL required to decrease bacterial growth by 50%)

SMILES: CCCC[N+](CCCC)(CCCC)CCCC [Compound 3, tetrabutylammonium bromide, reference compound]
IC50 ([1]; read-out: IC50 (concentration of IL required to decrease bacterial growth by 50%), E. coli strain 1A1, LB media, 24 h, 37 °C): 10 ± 1.3 mM

SMILES: C[N+](C)(C)Cc1ccccc1 [Compound 5, benzyltrimethylammonium hydroxide, reference compound]
IC50 [1, 4]: 10.4 ± 0.3 mM
pH of LB media at the IC50 concentration [2]: 8.5

SMILES: COc1ccc(C[N+](C)(C)C)cc1 [Compound 6]
IC50 [1, 5]: 11.6 ± 1.7 mM

SMILES: C[N+](C)(C)Cc1ccccc1 [Compound 4, Benzyltrimethylammonium acetate]
IC50 [1, 4]: 47.8 ± 0.6 mM

SMILES: COc1cc(C[N+](C)(C)C)cc(OC)c1OC [Compound 12]
fold more toxic to D. magna than vanillin-derived IL 11 ([3]; 48-h acute toxicity): 2.6 fold
IC50 [3]: 0.123 ± 0.012 mM

IC50 [1, 4]: 25.5 mM
pH of LB media at the IC50 concentration [2]: 9.4
SMILES: [Na+].[OH-] [NaOH, sodium hydroxide, reference compound]

IC50 [1, 5]: 19.6 ± 0.4 mM
SMILES: CC[N+](C)(CC)Cc1ccc(OC)c(OC)c1 [Compound 9, N-(3,4-Dimethoxybenzyl)-N-ethyl-N-methylethanaminium acetate]

SMILES: COc1ccc(C[N+](C)(C)C)cc1OC [Compound 11]
fold reduction of toxicity of the methanesulfonate compared with the acetate anion (8) ([1]; E. coli, vanillin-derived N,N,N-trimethyl cation): 1.6 fold
IC50 ([1]; Escherichia coli, 1A1, 24 h, read-out: IC50 (concentration of IL required to decrease bacterial growth by 50%)): 78.7 ± 2.5 mM
fold by which IC50 against D. magna is lower than IC50 against E. coli ([3]; 0.319 mM vs 78.7 mM): approximately 250 fold
IC50 [3]: 0.319 ± 0.066 mM

IC50 [1, 5]: 17.7 ± 0.9 mM
SMILES: CCC[N+](C)(CCC)Cc1ccc(OC)c(OC)c1 [Compound 10, N-(3,4-Dimethoxybenzyl)-N-methyl-N-propylpropan-1-ammonium acetate]

SMILES: COc1cc(C[N+](C)(C)C)cc(OC)c1OC [Compound 7]
IC50 [1, 5]: 22.2 ± 0.8 mM

SMILES: CCCC[N+](CCCC)(CCCC)CCCC [Compound 2, Tetrabutylammonium acetate]
IC50 ([1]; Escherichia coli, 1A1, 24 h, read-out: IC50 (concentration of IL required to decrease bacterial growth by 50%), E. coli strain 1A1, LB media, 24 h, 37 °C): 13.2 ± 2.9 mM

SMILES: COc1ccc(C[N+](C)(C)C)cc1OC [Compound 8]
IC50 [1, 5]: 48.2 ± 3.3 mM
